Data set [1] relates to ob/ob mice. Description: Long-term in vivo model of fatty liver in ob/ob mice. The procedure:
(§1) C57BL/6 and oh/oh mice were purchased from CLEA Japan and Charles River Japan, Inc., respectively. Animal experiments were carried out at the University of Tokyo and Charles River Laboratories. Low fat, high carbohydrate diet, lacking vitamin D was custom made by Research Diets, Inc. Compounds disclosed herein and 25(OH)D3 were dissolved in ethanol/Tween 20 (9:1) to obtain stock solution and then diluted 10-fold with PBS immediately before administration to mice.
(§2) Following sacrifice, mouse livers were fixed in 10% neutral-buffered formalin, embedded in paraffin, sectioned, and stained with H&E. Hepatic lipids were extracted with chloroform/methanol (2:1 v/v), and TG and cholesterol contents were measured with Triglyceride Reagent Set (Pointe Scientific) and Cholesterol E (Wako), respectively. Serum levels of ALT, TG, glucose, cholesterol, and calcium were measured in SRL Inc. (Tokyo). All experiments were approved by the Ethics Committee for Animal Experimentation of the University of Tokyo and Charles River Laboratories Japan, and were conducted in accordance with the Guidelines for the Care and Use of Laboratory Animals.
Six-week-old ob/ob mice were treated with 10 mg/kg KK-052, 10 mg/kg 25(OH)D3, or vehicle control 5 times per week for 4 weeks (FIG. 7A).
Body weights of ob/ob mice were measured and data are given as means±SEM (25(OH)D3, n=5; others, n=8), *p<0.05 (FIG. 7B).
Hepatic TG and cholesterol contents were measured in KK-052- or vehicle-treated ob/ob mice (means±SEM), *p<0.05 (FIG. 7D).
Serum levels of ALT, TG, total cholesterol, glucose, and calcium were measured in KK-052- or vehicle-treated ob/ob mice (means±SEM), *p<0.05 (FIG. 7E).

Data set [2] can be described thus: Short-term in vivo model: serum calcium levels. The arrangement: species or system mice. The note with it: 10 mg/kg intraperitoneally, after 4 days, n=3, FIG. 5D. The method, then: (§3) To quickly and simultaneously examine their SREBP inhibitory activity and VDR-derived calcemic activity in vivo, a short-term in vivo screening system of mice was established. With reference to the previous report (Horton, J. D. et al. Proc. Natl. Acad. Sci. U.S.A. 1998, 95, 5987-5992.), mice were fasted for 48 hours then refed a special diet (low fat, high carbohydrate diet, lacking in vitamin D) for 48 hours before sacrifice.
as §1
(§4) 10 mg/kg compounds or vehicle control were administered intraperitoneally once every 24 hours during the fasting and refeeding.
as §2
Serum calcium levels in the mice treated with vehicle, compounds, or 25(OH)D3 were determined (means±SEM, n=3 per group), *p<0.05 (FIG. 5D).

For data set [3], the system named is SREBP. Description: SREBP luciferase reporter assay (pSRE-Luc) in CHO-K1 cells. The format is cell-based. The note with it: CHO-K1 cells. The method, then: Cell Culture: CHO-K1 cells were maintained in medium A (1:1 mixture of Ham's F-12 medium and DMEM, supplemented with 100 units/mL penicillin, 100 μg/mL streptomycin sulfate, and 5% [v/v] fetal bovine serum) at 37° C. in a humidified 5% CO2 incubator.
CHO-K1 cells were seeded into 96-well plates at 8×10^3 cells per well in medium A and incubated for 24 h. For SREBP reporter assay, cells were co-transfected with an SRE-1-driven luciferase reporter plasmid (pSRE-Luc) and an actin promoter-driven β-galactosidase expression plasmid (pAc-13-gal) at a 20:1 ratio, using FuGENE HD Transfection Reagent (Promega) according to the manufacturer's protocol.
After 20 h, the medium was changed to medium B (1:1 mixture of Ham's F-12 medium and DMEM, supplemented with 100 units/mL penicillin, 100 μg/mL streptomycin sulfate, 5% [v/v] lipid-depleted serum, 50 μM compactin (Tokyo Chemical Industry), and 50 μM lithium mevalonate (Sigma-Aldrich) containing the specific test compounds. After 24 h incubation, the cells in each well were lysed with 100 μL of 1× Reporter Lysis Buffer (Promega), and 50 μL of aliquots were used to measure luciferase and 13-gal activities. Luciferase activity was measured using the Steady-Glo Luciferase Assay System (Promega), and 13-gal activity was measured using the 13-Galactosidase Enzyme Assay System (Promega). Luciferase activity was normalized to 13-gal activity.
[…] The same experiment using of 25(OH)D3 (1) was performed as control. Values are mean±SD.

Data set [4] has as its system SREBP-responsive genes. Description: Short-term in vivo model (fasting/refeeding): hepatic mRNA of SREBP-responsive genes by real-time PCR. Also on record: species or system mice. The method, then:
as §3, §1, §4
Relative mRNA levels of SREBP-responsive genes were determined by real-time PCR in the livers obtained from the mice with free access to a normal diet or fasted and refed a special diet (means SEM, n=3 per group), *p<0.05.
Expression levels of SREBP-responsive genes were determined by real-time PCR in the livers obtained from the mice treated with indicated compounds (10 mg/kg) according to the protocol illustrated in FIG. 5A. Data are expressed as relative expression to the mean value of vehicle-treated mouse liver (means±SEM, n=3 per group), *p<0.05 (FIG. 5C).
Relative mRNA levels of SREBP-responsive genes were determined by real-time PCR in the livers obtained from the indicated mice Data are means±SEM (fed mice, n=3; others, n=6), *p<0.05 (FIG. 5E).

The mark [5] stands for this setting: 10 mg/kg 5 times per week for 4 weeks.
[6] abbreviates: ob/ob mice, versus vehicle, FIG. 7D.

The values that follow come from patent US11932595B2, “VDR-silent vitamin D derivative as inhibitors of SREBP and pharmaceutical use thereof” (KYOTO UNIVERSITY, priority 2020, dated 2024).

Take `C=C1CC[C@H](O)C/C1=C/C=C1\CCC[C@]2(C)[C@@H]([C@H](C)CCCC(C)(C)O)CC[C@@H]12` [25(OH)D3, 25-hydroxyvitamin D3, reference compound]: the “general condition of treated ob/ob mice” value in data set [1] (setting [5]) is “became sick due to hypercalcemia and euthanized at 1 week”. In data set [2], the serum calcium levels entry was “markedly increased”. Moreover, in data set [3] (5 μM compound, lipid-free medium, 24 h, FIGS. 1 and 3), the “SREBP inhibitory activity (expression of SREBP-responsive luciferase reporter gene)” value was “substantial inhibitory activity”.

Take `C[C@H](CCC(F)(F)C(C)(C)O)[C@H]1CC[C@H]2/C(=C/Cn3nnnc3-c3ccccc3)CCC[C@]12C` [Compound 50, (R)-3,3-Difluoro-2-methyl-6-{(1R,3aS,7aR,E)-7a-methyl-4-[2-(5-phenyl-1H-tetrazol-1-yl)ethylidene]octahydro-1H-inden-1-yl}heptan-2-ol]: the “hepatic expression of SREBP-response genes ACC1 and FASN versus vehicle” value in data set [4] (10 mg/kg intraperitoneally once every 24 hours, fasted 48 h/refed 48 h, n=3, FIG. 5C) was “significantly suppressed”. In addition, the “elevated hepatic expression of the three SREBP-responsive genes ACC1, FASN and SCD1” value in data set [4] (10 mg/kg intraperitoneally, fasting/refeeding, FIG. 5C) is given as “mitigated the elevated expression”. The “elevated hepatic expression of the four SREBP-responsive genes, repeated examination” value in data set [4] (10 mg/kg, increased number of mice (n=6), FIG. 5E) is “significantly mitigated”. For the same compound, the “general condition of treated ob/ob mice” value in data set [1] (setting [5]) is reported as “appeared healthy until the end of the experiments”. Also, in data set [1] (ob/ob mice, 10 mg/kg 5 times per week for 4 weeks, FIG. 7B), the weight gain result is listed as “slightly but significantly decreased”. For the same compound, the “liver steatosis (H&E histology)” value in data set [1] (ob/ob mice, 10 mg/kg, 4 weeks, FIG. 7C) was “attenuated”. Besides, in data set [1] (ob/ob mice, 10 mg/kg, 4 weeks, FIG. 7E), the “serum calcium levels versus vehicle-treated group” value is recorded as “no detectable difference”. For the same compound, in data set [1] (ob/ob mice, FIG. 7E), the “serum level of TG” value was “significantly decreased”, the “serum level of alanine aminotransferase (ALT)” value is on record as “significantly decreased” and the “serum level of glucose” value is reported as “significantly decreased”. Moreover, in data set [1] (setting [6]), the hepatic cholesterol content result is listed as “significantly decreased” and the “hepatic triglyceride (TG) content” value was “significantly decreased”. Moreover, the serum calcium levels entry in data set [2] is recorded as “no detectable increase”. Besides, the “inhibition of activation of the SREBP reporter gene, concentration dependence” value in data set [3] (FIG. 6A) is on record as “concentration-dependent manner comparable to 25(OH)D3”.
